Measurements: patent publication US7041700B2, “Substituted benzopyran derivatives against arrhythmia” (Nissan Chemical Industries, Ltd., priority 2001, dated 2006)

How the values were obtained:
Atrium = assay: Effects on the effective refractory period, atrium (anesthetized beagles, vagal nerve stimulation, S1-S2 extrastimulus); assay type: in vivo; conditions: 0.3 mg/kg intravenously, from 5 min after administration, basic cycle length 300 msec, bilateral vagal nerve stimulation, ERP after minus before drug
Protocol: (§1) Effects on the Effective Refractory Period
(§2) Beagles were anesthetized with pentobarbital sodium and thoracotomy was done along the median line under a respirator and the incision was made on the pericardium to expose the heart. ECG was recorded using bipolar electrodes attached to the surface of the right atrial free wall, right atrial auricle, and right ventricular free wall. The vagal nerves were stimulated using an electrostimulation device with Nichrome wires inserted into the vagal nerves in the neck bilaterally. The conditions for electrostimulation to the vagal nerves were set such that the RR intervals on ECG were prolonged by about 100 msec compared with those before the stimulation was started.
(§3) Atrial and ventricular effective refractory periods were determined by S1-S2 extrastimulus technique at basic cycle length of 300 msec during bilateral vagal nerve stimulation, using programmable electric stimulator. A train of 10 basic stimuli (S1) was followed by a premature extrastimulus (S2) at 2 times diastolic threshold.
(§4) For evaluation of drug effects, the atrial and ventricular effective refractory periods were determined before drug administration, then respective compound was administrated intravenously at the dose of 0.3 mg/kg, and the atrial and ventricular effective refactory periods were determined from 5 min after the administration.
(§5) The results were shown as the prolongation time on the atrial and ventricular effective refractory periods, i.e. [effective refractory period after drug administration]−[effective refactory period before drug administration] (msec).

Ventricle = assay: Effects on the effective refractory period, ventricle (anesthetized beagles, vagal nerve stimulation, S1-S2 extrastimulus); assay type: in vivo; conditions: 0.3 mg/kg intravenously, from 5 min after administration, basic cycle length 300 msec, bilateral vagal nerve stimulation, ERP after minus before drug
Protocol: as §1, §2, §3, §4, §5

Structure (SMILES)	prolongation time on the effective refractory period (msec) Atrium (Atrium) [ms]	prolongation time on the effective refractory period (msec) Ventricle (Ventricle) [ms]
Cc1ccc2c(c1)[C@H](NCCc1ccc(Cl)cc1)[C@@H](O)C(C)(C)O2 [compound 2]	23	4
CC1(C)Oc2ccc(C(N)=O)cc2[C@H](NCCc2ccccc2)[C@H]1O [compound 3]	21	4
CC1(C)Oc2ccc(C(N)=O)cc2[C@H](NCCc2ccc(F)cc2)[C@H]1O [compound 4]	23	-10
CC1(C)Oc2cc([N+](=O)[O-])ccc2[C@H](NCCc2ccccc2)[C@H]1O [compound 6]	36	9
